In brackets after ≈: the same amount, converted by molar mass. Like-named read-outs stand apart in the source and are kept apart here.
Experiments:
[1] = ORAC-Total (ORAClipo + ORAChydro)
Excerpt: An ORAC method for lipophilic antioxidants was further developed and validated using fluorescein as the fluorescent probe (Prior et al. 2003 J. Agric. Food Chem. 51: 3273-3279). This method has the advantage that similar assay conditions and standards can be used for both hydrophilic and lipophilic antioxidant components, such that the two values can be added together to obtain a total antioxidant capacity. In the present work, the ORAC value is expressed as the sum of values of both the water-soluble and fat-soluble parts. Green tea catechins (Polyphenon 60) were used as the control with the highest ORAC value among edible plants. Vitamin C and vitamin E were used as controls for water- and fat-soluble molecules, respectively. […] The SOAC scores are not included in this figure; ORAC values used are the sum of lipophilic and hydrophilic results. For each assay category, scaling was made logarithmic so that the plot on the chart resembles the associated rating. […] The larger the spatial area, the higher the overall antioxidative capacity. […] Both hydrophilic and lipophilic oxygen radical absorbance capacity (ORAC) assays were carried out at Brunswick Laboratory (Wareham, Mass.) based on the modified ORACfl method reported by Ou et al. (2001 J. Agric. Food Chem. 49: 4619-4626, 2002 J. Agr. Food Chem. 50: 3122-3128). Trolox, a water-soluble vitamin E analog, was used as the calibration standard. The data are expressed as mmole of Trolox equivalents per gram (mmol TE/g). The acceptable precision of the ORAC assay is a 15% relative standard deviation. Caffeic acid was used as the calibration standard. Hydroxyl radical ORAC (HOR-AC) is expressed as mmole caffeic acid equivalent per gram (mmol CAE/g). Trolox was used as the calibration standard. The peroxyl nitrite ORAC (NORAC) result is expressed as mmol TE/g. Alpha-tocopherol (vitamin E) was used as the calibration standard, and the singlet oxygen absorbance capacity (SOAC) result is expressed as mmole a-tocopherol equivalent (mmol VtE) per gram (Aubry et al. 1989). The abbreviation for the 1,1-diphenyl-2-picrylhydrazyl radical is DPPH. Radical-scavenging activity was measured by the change in absorbance at 517 nm with the DPPH result expressed as mmol TE/g. Similarly, FRAP is an abbreviation for the ferric reducing antioxidative power method, which utilizes chemical conversion of the yellow Fe 3+-2,4,6-tripyridyl s-triazine (TPTZ) complex to the blue Fe 2+-TPTZ complex by electron donation under acidic conditions (Okada and Okada 1998 J. Agric. Food Chem. 46: 401-406). The FRAP result is expressed as mmol TE/g (Ou et al. 2002b). Superoxide dismutase (SOD) was used as a calibration standard; the SOD result is expressed as kilo unit SOD equivalent (kunitSODeq) per gram.

S. pyogenes (ATCC 14289) = assay: Antimicrobial susceptibility, broth dilution (MIC/MBC); format: cell-based, Streptococcus pyogenes
Description: (§1) The antibacterial effects of seven hops components against five different strains of bacteria involved in primary or secondary skin and soft tissue infections was evaluated, with broth dilution methods. […] Antimicrobial susceptibility testing was performed using a broth dilution method. Gentamicin or ampicillin was used as a control to verify the methodology. A stock solution (20 mg/ml) of the test substance (or vehicle control) was prepared in dimethyl sulfoxide. Serial dilution was done in microwell plates. Reinforced Clostridial Medium was used for P. acnes (ATCC 6919). Three hundreds […] of the test substance was added to the test tube containing P. acnes (10^5 CFU/ml) in 2.7 ml of cultures grown under anaerobic conditions. Mueller-Hinston Broth suitable for culturing S. epidermidis (ATCC 12228), K. rhizophila (formerly M. luteus) (ATCC 9341), and S. aureus (ATCC […]), and Brain Heart Infusion Broth suitable for culturing S. pyogenes (ATCC 14289) were used. A total of […] of the test substance was added to the test tube containing the other microorganisms (10^5CFU/ml) in 0.9 ml of cultures grown under controlled conditions. […] Samples from those tubes that scored positive was plated onto an agar plate and incubated under controlled conditions.

P. acnes (ATCC 6919) = assay: as above; format: cell-based, Propionibacterium acnes
Description: as §1

SOD antioxidant assay = details: FIG. 2 radar chart
Description: [table] […] The SOAC scores are not included in this figure; ORAC values used are the sum of lipophilic and hydrophilic results. For each assay category, scaling was made logarithmic so that the plot on the chart resembles the associated rating. […] The larger the spatial area, the higher the overall antioxidative capacity. […] Both hydrophilic and lipophilic oxygen radical absorbance capacity (ORAC) assays were carried out at Brunswick Laboratory (Wareham, Mass.) based on the modified ORACfl method reported by Ou et al. (2001 J. Agric. Food Chem. 49: 4619-4626, 2002 J. Agr. Food Chem. 50: 3122-3128). Trolox, a water-soluble vitamin E analog, was used as the calibration standard. The data are expressed as mmole of Trolox equivalents per gram (mmol TE/g). The acceptable precision of the ORAC assay is a 15% relative standard deviation. […] Hydroxyl radical ORAC (HOR-AC) is expressed as mmole caffeic acid equivalent per gram (mmol CAE/g). […] The peroxyl nitrite ORAC (NORAC) result is expressed as mmol TE/g. Alpha-tocopherol (vitamin E) was used as the calibration standard, and the singlet oxygen absorbance capacity (SOAC) result is expressed as mmole a-tocopherol equivalent (mmol VtE) per gram (Aubry et al. 1989). […] Radical-scavenging activity was measured by the change in absorbance at 517 nm with the DPPH result expressed as mmol TE/g. […] The FRAP result is expressed as mmol TE/g (Ou et al. 2002b). […]

[2] = tested on: K. rhizophila (formerly M. luteus) (ATCC 9341); assay: Antimicrobial susceptibility, broth dilution (MIC/MBC); format: cell-based, Kocuria rhizophila
Description: as §1

With `COc1cc(O)c(CC=C(C)C)c(O)c1C(=O)/C=C/c1ccc(O)cc1` [Xanthohumol (7), 3′-[3,3-dimethylallyl]-2′,4′,4-trihydroxy-6′-methoxychalcone] the “quenching activity against peroxyl radical (ORAC-total), rank among hop components” value ([1]; FIG. 2 radar chart) was “highest quenching activity”, the “ORAC-Total (Trolox equivalent)” value ([1]; ORAClipo + ORAChydro) was 4.2 Trolox equivalent and the MBC (S. pyogenes (ATCC 14289)) was “[3] g/mL”. The MIC (S. pyogenes (ATCC 14289); 1 day) was 1 µg/mL (≈ 2.82 µM), the MBC (P. acnes (ATCC 6919); Cutibacterium acnes, ATCC6919, read-out: MBC) was 3000 µg/mL (≈ 8460 µM) and the MBC (P. acnes (ATCC 6919); lowest concentration required to kill) was “[3] g/mL”. The MIC (P. acnes (ATCC 6919); minimal 100% inhibitory concentration, 2 days) was 3 µg/mL (≈ 8.46 µM), the “quenching activity against superoxide (SOD), rank among hop components” value (SOD antioxidant assay) was “highest quenching activity” and the MBC [2] was “[10] g/mL”. For the same molecule, the MIC ([2]; 1 day) was 1 µg/mL (≈ 2.82 µM) and the MIC ([2]; Kocuria rhizophila, ATCC9341) was 1000 µg/mL (≈ 2820 µM).

From patent publication US20110207697A1, “XANTHOHUMOL COMPOSITIONS AND METHODS FOR TREATING SKIN DISEASES OR DISORDERS” (Betal, LLC, priority 2008, published 2011)
